The values below come from patent US20040029928A1, “Novel propenohydroxamic acid derivatives” (priority 2000, published 2004).

pIC50: −log10 of the molar value.

The target of data set [1] is T1, TACE (crude extracted protein from membrane fraction of THP-1 cells) (Homo sapiens, UniProt P78536).
T1 construct: The supernatant was collected, which was provided for use as a TACE crude extract; endogenous in cells; host or cells: THP-1 cells stimulated with LPS, silica and hydroxyurea; membrane fraction solubilised with 1% Triton X-100
T1 sequence (P78536 215-824): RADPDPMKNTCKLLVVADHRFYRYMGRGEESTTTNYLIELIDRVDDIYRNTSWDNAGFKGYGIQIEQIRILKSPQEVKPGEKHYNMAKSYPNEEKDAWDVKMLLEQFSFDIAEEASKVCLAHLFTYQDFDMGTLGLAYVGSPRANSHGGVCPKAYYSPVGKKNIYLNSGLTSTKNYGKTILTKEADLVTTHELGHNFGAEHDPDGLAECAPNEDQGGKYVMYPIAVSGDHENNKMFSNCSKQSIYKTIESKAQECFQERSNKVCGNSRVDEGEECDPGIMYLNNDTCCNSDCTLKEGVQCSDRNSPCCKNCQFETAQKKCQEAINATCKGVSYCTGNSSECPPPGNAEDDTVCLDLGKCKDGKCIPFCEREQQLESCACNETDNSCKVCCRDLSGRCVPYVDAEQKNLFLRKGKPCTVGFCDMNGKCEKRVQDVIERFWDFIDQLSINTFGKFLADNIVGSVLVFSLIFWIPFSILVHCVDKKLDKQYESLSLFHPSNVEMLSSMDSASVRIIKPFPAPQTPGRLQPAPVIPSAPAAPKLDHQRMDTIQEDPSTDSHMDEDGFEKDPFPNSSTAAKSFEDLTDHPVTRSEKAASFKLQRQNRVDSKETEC
The experiment in a line: In vitro TACE inhibitory activity (fluorogenic peptide substrate). Format: biochemical. The conditions noted are these: crude TACE 10 μg/mL, substrate 20 μM, room temperature, at least 4 hours. The procedure: Test 1 (In Vitro TACE Inhibitory Activity)
(1) Crude Extraction of TACE from THP-1 Cell Membrane
To THP-1 cells (cell density: 2×10^6/mL) suspended in RPMI 1640 medium containing 1% FBS were added LPS (E. coli 055:B55, final concentration: 1 pg/mL), silica (0.014 μm, final concentration: 50 μg/mL) and hydroxyurea (final concenration: 2 mM), followed by cultivation at 37° C. for 16 hours under 5%-CO2 conditions. The resulting cells were then washed once with RPMI 1640 medium free of FBS. The cells were suspended in 3 times the pellet volume of Solution A (10 mM sodium phosphate (pH 7.4), 1 mM MgCl2, 30 mM NaCl, 0.02% NaN3, 5 μM PMSF (phenyl methyl sulfonyl fluoride)). The cells were ground by a Polytron homogenizer (5 sec×5 times, ice cooling for 1 to 2 minutes each time). The homogenate solution was stacked over 41% sucrose-Solution A, followed by centrifugation (150,000 g×1 hour). After centrifugation, the intermediate layer was collected and diluted with 4 volumes of Solution A, followed by centrifugation (150,000 g×20 min). A sufficient amount of a solubilizing solution (1%-Triton X-100-A solution) was added (protein concentration: 1 mg/mL) and the mixture was stirred (4° C.×1 hour). Stirring was followed by centrifugation (100,000 g×30 min, 4° C.). The supernatant was collected, which was provided for use as a TACE crude extract.
(2) Measurement of TACE Inhibitory Activity
TACE (crude extracted protein from membrane fraction of THP-1 cells, final concentration: 10 μg/mL), each of test compounds (DMSO final concentration: 1%) shown in Table 1 and an incubate solution (50 mM Tris-HCl (pH 7.4), 5 mM CaCl2, 0.002% NaN3, 0.002% Brij 35) was added to a 96-well black plate. After pre-incubation at room temperature for 30 minutes, a substrate (N-methylanthranilyl-LAQAVRSK(DNP)rr-NH2: product of PEPTIDE INSTITUTE, INC., final concentration: 20 μM) was added, followed by incubation at room temperature for at least 4 hours. The fluorescence intensity was measured using POLAR STAR (Ex: 340 nm, Em: 430 nm) and from it, TACE inhibitory activity (IC50 value) was calculated.

Data set [2] has as its target T2, MMP-1 (Homo sapiens, UniProt P03956).
T2 construct: purchased Cosmo Bio Co
T2 sequence (P03956 100-469): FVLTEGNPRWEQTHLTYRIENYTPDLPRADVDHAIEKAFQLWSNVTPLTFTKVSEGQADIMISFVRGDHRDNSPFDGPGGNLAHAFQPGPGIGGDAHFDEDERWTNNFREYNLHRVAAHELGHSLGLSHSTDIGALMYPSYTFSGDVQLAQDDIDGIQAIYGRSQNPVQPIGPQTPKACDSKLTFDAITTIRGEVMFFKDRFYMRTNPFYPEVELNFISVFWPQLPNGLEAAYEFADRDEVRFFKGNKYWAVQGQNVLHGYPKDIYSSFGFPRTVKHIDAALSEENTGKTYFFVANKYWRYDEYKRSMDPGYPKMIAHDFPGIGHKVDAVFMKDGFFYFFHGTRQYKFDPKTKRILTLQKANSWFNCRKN
The experiment in a line: Measurement of MMP-1 inhibitory activity. The data set is classed as biochemical. The note with it: MMP-1 (Cosmo Bio), fluorogenic substrate. The protocol:
Test 2 (Measurement of MMP-1 Inhibitory Activity)
MMP-1 inhibitory activity (IC50 value) was measured in accordance with the above-described measuring method of TACE inhibitory activity by using MMP-1 (product of Cosmo Bio Co.) and, as a substrate, 7-methoxycoumarin-4-yl-acetyl-PLGL-[N^3-(2,4-dinitrophenyl)2,3-diaminopropionyl]-AR—NH2 (product of Peptide Institute Inc.). The fluorescence intensity was measured using POLAR STAR (Ex: 340 nm, Em: 405 nm).

For the compound `COc1ccc(OC)c(S(=O)(=O)N(C)c2cccc(/C(=C\C(=O)NO)c3ccccc3)c2)c1` [Compound 76, Z-3-[3-[N-(2,5-Dimethoxybenzenesulfonyl)-N-methylamino]phenyl]-3-phenylpropenohydroxamic acid], the melting point (as a rule, the temperature, or range, at which the solid turns liquid) fell in the range of 151 to 153 °C. As for `CN(c1cccc(/C(=C\C(=O)NO)c2ccccc2)c1)S(=O)(=O)c1cccc2cccnc12` [Compound 73, Z-3-[3-[N-(8-Quinolinesulfonyl)-N-methylamino]phenyl]-3-phenylpropenohydroxamic Acid], the pIC50 (usually the negative decadic logarithm of the IC50, by convention in mol/L) in data set [1] is 7.54; in data set [2] it was < 5.00. With `CN(C)c1cccc2c(S(=O)(=O)N(C)c3cccc(/C(=C\C(=O)NO)c4ccccc4)c3)cccc12` [Compound 74, Z-3-[3-[N-(5-(Dimethylamino)-1-naphthalenesulfonyl)-N-methylamino]phenyl]-3-phenylpropenohydroxamic acid], the melting point fell in the range of 96 to 99 °C.

As for `COc1ccc(NC(=S)Nc2cccc(/C(=C\C(=O)NO)c3ccccc3)c2)cc1` [Compound 58, Z-3-[3-[3-(4-Methoxyphenyl)thioureido]phenyl]-3-phenylpropenohydroxamic Acid], the melting point lay within 176 to 179 °C. Same read-out and setting: to `O=C(NO)C(F)=C(c1cccc(NS(=O)(=O)c2cccc3cccnc23)c1)c1cccc(NS(=O)(=O)c2cccc3cccnc23)c1` [Compound 49, 2-Fluoro-3,3-bis[3-(8-quinolinesulfonylamino)phenyl]propenohydroxamic Acid] belongs 150 to 153 °C.

`O=C(/C=C(/c1ccccc1)c1cccc(N(Cc2ccccc2)S(=O)(=O)c2ccc3ccccc3c2)c1)NO` [Compound 65, Z-3-[3-[N-(2-Naphthalenesulfonyl)-N-benzylamino]phenyl]-3-phenylpropenohydroxamic Acid] returned a melting point of 88 to 90 °C. For `O=C(/C=C(/c1ccccc1)c1cccc(NS(=O)(=O)c2cccc3ccccc23)c1)NO` [Compound 27, Z-3-[3-(1-Naphthalenesulfonylamino)phenyl]-3-phenylpropenohydroxamic Acid], the melting point was in the range of 160 to 163 °C. Take `COc1ccc(S(=O)(=O)N(c2cccc(/C(=C/C(=O)NO)c3cccnc3)c2)C(C)C)cc1` [Compound 114, Z-3-[3-[N-(4-Methoxybenzenesulfonyl)-N-isopropylamino]phenyl]-3-(3-pyridyl)propenohydroxamic acid]: the melting point is 195 to 197 °C. Still for that read-out and setting: the value for `CCCN(c1cccc(/C(=C\C(=O)NO)c2cccnc2)c1)S(=O)(=O)c1ccc(OC)cc1` [Compound 115, E-3-[3-[N-(4-Methoxybenzenesulfonyl)-N-propylamino]phenyl]-3-(3-pyridyl)propenohydroxamic Acid] was 151 to 153 °C; that for `O=C(/C=C(/c1ccccc1)c1cc(NS(=O)(=O)c2ccc3ccccc3c2)ccc1Cl)NO` [Compound 36, Z-3-[2-Chloro-5-(2-naphthalenesulfonylamino)phenyl]-3-phenylpropenohydroxamic Acid] was 173 to 175 °C. The compound `COc1ccc(NC(=O)Nc2cccc(/C(=C\C(=O)NO)c3ccccc3)c2)cc1` [Compound 57, Z-3-[3-[3-(4-Methoxyphenyl)ureido]phenyl]-3-phenylpropenohydroxamic Acid] gave a melting point of 190 to 192 °C. Still for that read-out and setting: the value for `O=C(C=C(c1cccc(NS(=O)(=O)c2cccc3cccnc23)c1)c1cccc(NS(=O)(=O)c2cccc3cccnc23)c1)NO` [Compound 46, 3,3-bis[3-(8-Quinolinesulfonylamino)phenyl]propenohydroxamic Acid] was 152 to 156 °C; that for `O=C(/C=C(/c1ccccc1)c1ccc(NS(=O)(=O)c2ccc([N+](=O)[O-])cc2)cc1)NO` [Compound 35, Z-3-[4-(4-Nitrobenzenesulfonylamino)phenyl]-3-phenylpropenohydroxamic Acid] was 146 to 148 °C. The same measure, in the same setting: to `COc1ccc(S(=O)(=O)Nc2ccc(/C(=C\C(=O)NO)c3ccccc3)cc2)cc1` [Compound 54, Z-3-[4-(4-Methoxybenzenesulfonylamino)phenyl]-3-phenylpropenohydroxamic Acid] belongs 188 to 191 °C; to `O=C(C=C(c1cccc(NS(=O)(=O)c2ccc(Br)cc2)c1)c1cccc(NS(=O)(=O)c2ccc(Br)cc2)c1)NO` [Compound 40, 3,3-bis [3-(4-Bromobenzenesulfonylamino)phenyl]propenohydroxamic Acid], 137 to 141 °C; to `O=C(/C=C(/c1ccccc1)c1cccc(N(CCc2ccccc2)S(=O)(=O)c2ccc3ccccc3c2)c1)NO` [Compound 66, Z-3-[3-[N-(2-Naphthalenesulfonyl)-N-(2-phenylethyl)amino]phenyl]-3-phenylpropenohydroxamic Acid], 127 to 129 °C. Still for that read-out and setting: the value for `O=C(/C=C(/c1ccccc1)c1cccc(NS(=O)(=O)N2CCCCC2)c1)NO` [Compound 26, Z-3-[3-(1-Piperidinesulfonylamino)phenyl]-3-phenylpropenohydroxamic Acid] was 158 to 159 °C.

In the case of `O=C(C=C(c1cccc(NS(=O)(=O)c2ccc3ccccc3c2)c1)c1cccc(NS(=O)(=O)c2ccc3ccccc3c2)c1)NO` [Compound 45, 3,3-bis[3-(2-Naphthalenesulfonylamino)phenyl]propenohydroxamic Acid], the melting point was 128 to 131 °C. Still for that read-out and setting: the value for `COc1ccc(C(=O)Nc2cccc(/C(=C\C(=O)NO)c3ccccc3)c2)cc1` [Compound 53, Z-3-[3-(4-Methoxybenzoylamino)phenyl]-3-phenylpropenohydroxamic Acid] was 134 to 137 °C. On the same count and under the same terms, to `COc1ccc(C(=O)Nc2cccc(C(=CC(=O)NO)c3cccc(NC(=O)c4ccc(OC)cc4)c3)c2)cc1` [Compound 39, 3,3-bis[3-(4-Methoxybenzoylamino)phenyl]propenohydroxamic Acid] belongs 198 to 200 °C; to `COc1ccc(S(=O)(=O)Nc2ccc(Cl)c(/C(=C\C(=O)NO)c3ccccc3)c2)cc1OC` [Compound 37, Z-3-[2-Chloro-5-(3,4-dimethoxybenzenesulfonylamino)phenyl]-3-phenylpropenohydroxamic Acid], 127 to 130 °C. `CN(C)c1cccc2c(S(=O)(=O)Nc3cccc(/C(=C\C(=O)NO)c4ccccc4)c3)cccc12` [Compound 30, Z-3-[3-[5-(Dimethylamino)-1-naphthalenesulfonylamino)phenyl]-3-phenylpropenohydroxamic Acid] gave a melting point of 123 to 125 °C. The same measure, in the same setting: the value for `O=C(/C=C(/c1ccccc1)c1cccc(N(Cc2cccnc2)S(=O)(=O)c2ccc3ccccc3c2)c1)NO` [Compound 67, Z-3-[3-[N-(2-Naphthalenesulfonyl)-N-(3-pyridylmethyl)amino]phenyl]-3-phenylpropenohydroxamic Acid] was 168 to 170 °C. As to `COc1ccc(S(=O)(=O)Nc2cccc(C(=CC(=O)NO)c3cccc(NS(=O)(=O)c4ccc(OC)c(OC)c4)c3)c2)cc1OC` [Compound 44, 3,3-bis[3-(3,4-Dimethoxybenzenesulfonylamino)phenyl]propenohydroxamic Acid], the melting point lay within 132 to 135 °C.
